≈ marks a conversion by molar mass, not a printed value.
Legend:
Assay in all cases: Anti-bacterial activity (MIC), agar dilution
Format in all cases: cell-based
[1] = tested on: Escher. coli NIHJ; details: Escherichia coli, 18 h, Escher. coli NIHJ; agar dilution, about 10^6 CFU/ml, 18 hours, 37° C.; read-out: MIC
Experimental: (§1) MIC (μg/ml) were determined by an agar dilution method [Chemotherapy (Japan), 29, 76-79, 1981]. Overnight cultures of the bacterial strains in Mueller-Hinton broth were diluted to final concentration of about 10^6 CFU/ml, and 5 μl of each bacterial suspension was spotted onto Mueller-Hinton agar plates that contained twofold serial dilutions of antibiotics. MICs were measured after incubation for 18 hours at 37° C.

[2] = tested on: Kleb. pneumoniae EK-6; details: Klebsiella pneumoniae, EK6, 18 h, Kleb. pneumoniae EK-6; agar dilution, about 10^6 CFU/ml, 18 hours, 37° C.; read-out: MIC
Experimental: as §1

[3] = tested on: Morganella morganii EP-14; details: Morganella morganii, EP14, 18 h, about 10^6 CFU/ml, 37° C., read-out: MIC
Experimental: as §1

[4] = tested on: Pseud. aeruginosa EP-01; details: Pseudomonas aeruginosa, EP01, 18 h, Pseud. aeruginosa EP-01; agar dilution, about 10^6 CFU/ml, 18 hours, 37° C.; read-out: MIC
Experimental: as §1

[5] = tested on: Ser. marcescens ES-75; details: Serratia marcescens, ES75, 18 h, Ser. marcescens ES-75; agar dilution, about 10^6 CFU/ml, 18 hours, 37° C.; read-out: MIC
Experimental: as §1

[6] = tested on: Staph. aureus 209-P; details: Staphylococcus aureus, 209P, 18 h, Staph. aureus 209-P; agar dilution, about 10^6 CFU/ml, 18 hours, 37° C.; read-out: MIC
Experimental: as §1

SMILES	MIC [1]	MIC [2]	MIC [3]	MIC [4]	MIC [5]	MIC [6]
CC(C)(CO)[N+](C)(C)C/C=C/C1=C(C(=O)[O-])N2C(=O)[C@@H](NC(=O)/C(=N\OCF)c3nsc(N)n3)[C@H]2SC1 [Example 69]	≤ 0.025 µg/mL	≤ 0.025 µg/mL	≤ 0.025 µg/mL	0.8 µg/mL (≈ 1.43 µM)	0.05 µg/mL (≈ 0.0897 µM)	0.2 µg/mL (≈ 0.359 µM)
C[N+](C)(C/C=C/C1=C(C(=O)[O-])N2C(=O)[C@@H](NC(=O)/C(=N\OCF)c3nsc(N)n3)[C@H]2SC1)C(CO)(CO)CO [Example 70]	≤ 0.025 µg/mL	≤ 0.025 µg/mL	≤ 0.025 µg/mL	0.8 µg/mL (≈ 1.36 µM)	0.1 µg/mL (≈ 0.17 µM)	0.1 µg/mL (≈ 0.17 µM)
C[N+](C)(C/C=C/C1=C(C(=O)[O-])N2C(=O)[C@@H](NC(=O)/C(=N\OCF)c3nsc(N)n3)[C@H]2SC1)CC(=O)NO [Example 72]	≤ 0.025 µg/mL	≤ 0.025 µg/mL	≤ 0.025 µg/mL	0.8 µg/mL (≈ 1.43 µM)	≤ 0.025 µg/mL	0.4 µg/mL (≈ 0.716 µM)
C[N+](C)(C/C=C/C1=C(C(=O)[O-])N2C(=O)[C@@H](NC(=O)/C(=N\OCF)c3nsc(N)n3)[C@H]2SC1)CC(=O)NCC(N)=O [Example 73]	0.05 µg/mL (≈ 0.0834 µM)	0.05 µg/mL (≈ 0.0834 µM)	0.1 µg/mL (≈ 0.167 µM)	1.56 µg/mL (≈ 2.6 µM)	0.05 µg/mL (≈ 0.0834 µM)	0.4 µg/mL (≈ 0.667 µM)
C[N+](C)(C/C=C/C1=C(C(=O)[O-])N2C(=O)[C@@H](NC(=O)/C(=N\OCF)c3nsc(N)n3)[C@H]2SC1)CC(=O)N(CCO)CCO [Example 74]	0.1 µg/mL (≈ 0.159 µM)	0.05 µg/mL (≈ 0.0793 µM)	0.1 µg/mL (≈ 0.159 µM)	1.56 µg/mL (≈ 2.47 µM)	0.4 µg/mL (≈ 0.634 µM)	0.8 µg/mL (≈ 1.27 µM)
C[N+](C)(C/C=C/C1=C(C(=O)[O-])N2C(=O)[C@@H](NC(=O)/C(=N\OCF)c3nsc(N)n3)[C@H]2SC1)CC(=O)NCCO [Example 75]	0.05 µg/mL (≈ 0.0852 µM)	0.05 µg/mL (≈ 0.0852 µM)	0.05 µg/mL (≈ 0.0852 µM)	1.56 µg/mL (≈ 2.66 µM)	0.2 µg/mL (≈ 0.341 µM)	0.4 µg/mL (≈ 0.682 µM)
CN(C)CCC[N+](C)(C)C/C=C/C1=C(C(=O)[O-])N2C(=O)[C@@H](NC(=O)/C(=N\OCF)c3nsc(N)n3)[C@H]2SC1 [Example 77]	0.2 µg/mL (≈ 0.35 µM)	0.2 µg/mL (≈ 0.35 µM)	0.4 µg/mL (≈ 0.701 µM)	3.13 µg/mL (≈ 5.48 µM)	0.2 µg/mL (≈ 0.35 µM)	0.4 µg/mL (≈ 0.701 µM)
CN(C)CC(O)C[N+](C)(C)C/C=C/C1=C(C(=O)[O-])N2C(=O)[C@@H](NC(=O)/C(=N\OCF)c3nsc(N)n3)[C@H]2SC1 (stereo partly drawn) [Example 78]	0.2 µg/mL (≈ 0.341 µM)	0.2 µg/mL (≈ 0.341 µM)	0.2 µg/mL (≈ 0.341 µM)	3.13 µg/mL (≈ 5.34 µM)	0.2 µg/mL (≈ 0.341 µM)	0.4 µg/mL (≈ 0.682 µM)

Results, then the compound that gave them:

MIC [1]	MIC [2]	MIC [3]	MIC [4]	MIC [5]	MIC [6]	SMILES
≤ 0.025 µg/mL	≤ 0.025 µg/mL	≤ 0.025 µg/mL	1.56 µg/mL (≈ 2.67 µM)	≤ 0.025 µg/mL	0.2 µg/mL (≈ 0.343 µM)	Cc1c(CCO)sc[n+]1C/C=C/C1=C(C(=O)[O-])N2C(=O)[C@@H](NC(=O)/C(=N\OCF)c3nsc(N)n3)[C@H]2SC1 [Example 81]
≤ 0.025 µg/mL	≤ 0.025 µg/mL	≤ 0.025 µg/mL	1.56 µg/mL (≈ 2.71 µM)	0.05 µg/mL (≈ 0.0867 µM)	0.4 µg/mL (≈ 0.694 µM)	NC(=O)Cc1cccc[n+]1C/C=C/C1=C(C(=O)[O-])N2C(=O)[C@@H](NC(=O)/C(=N\OCF)c3nsc(N)n3)[C@H]2SC1 [Example 82]
0.05 µg/mL (≈ 0.0768 µM)	≤ 0.025 µg/mL	≤ 0.025 µg/mL	3.13 µg/mL (≈ 4.81 µM)	0.1 µg/mL (≈ 0.154 µM)	0.8 µg/mL (≈ 1.23 µM)	Nc1nc(/C(=N/OCF)C(=O)N[C@@H]2C(=O)N3C(C(=O)[O-])=C(/C=C/C[n+]4ccc(C(=O)N(CCO)CCO)cc4)CS[C@H]23)ns1 [Example 83]
0.05 µg/mL (≈ 0.0824 µM)	≤ 0.025 µg/mL	0.05 µg/mL (≈ 0.0824 µM)	1.56 µg/mL (≈ 2.57 µM)	0.1 µg/mL (≈ 0.165 µM)	0.4 µg/mL (≈ 0.659 µM)	Nc1nc(/C(=N/OCF)C(=O)N[C@@H]2C(=O)N3C(C(=O)[O-])=C(/C=C/C[n+]4ccc(C(=O)NCCO)cc4)CS[C@H]23)ns1 [Example 84]
≤ 0.025 µg/mL	≤ 0.025 µg/mL	≤ 0.025 µg/mL	1.56 µg/mL (≈ 2.71 µM)	≤ 0.025 µg/mL	0.2 µg/mL (≈ 0.347 µM)	NC(=O)Cc1ccc[n+](C/C=C/C2=C(C(=O)[O-])N3C(=O)[C@@H](NC(=O)/C(=N\OCF)c4nsc(N)n4)[C@H]3SC2)c1 [Example 85]
≤ 0.025 µg/mL	≤ 0.025 µg/mL	≤ 0.025 µg/mL	0.8 µg/mL (≈ 1.43 µM)	≤ 0.025 µg/mL	0.2 µg/mL (≈ 0.357 µM)	C[N+](C)(C/C=C/C1=C(C(=O)[O-])N2C(=O)[C@@H](NC(=O)/C(=N\OCF)c3nsc(N)n3)[C@H]2SC1)CC(O)CO (stereo partly drawn) [Example 88]

Reference: patent publication US4921850A, “3-propenylcephem derivative” (Eisai Co., Ltd., priority 1986, dated 1990)
